Like-named read-outs stand apart in the source and are kept apart here.
Tested on: serum and liver lipid levels in rats
Assay: Serum and liver lipid levels and relative liver weight in rats (100 mg/kg, 10 days)
Type: in vivo, Male rats of the Wistar strain
Details: for response vs control in vivo at 100 mg/kg: Rattus norvegicus, po; for response vs control in vivo at 100 mg/kg / Relative liver weight, relative to Control (100): in parentheses, Control = (100); for Liver lipid levels Ch / Liver lipid levels PL / Liver lipid levels TG / Relative liver weight / Serum lipid levels Ch / Serum lipid levels PL / Serum lipid levels TG: 100 mg/kg p.o. 10 days, Mean ± S.E. (n = 9)
Experimental: (2) Male rats of the Wistar strain weighing 160-180 g were fed a stock deit (CE-2, Japan CLEA, Tokyo) and water ad libitum. The present compounds and KCD-232 were suspended, respectively, in a 0.5% of CMC solution and give orally to rats once a day at a dose of 100 mg/kg b.w. for 10 days.
Control rats were received the 0.5% CMC solution alone. The diet was withdrawn immediately after the last administration of compounds. Animals were sacrificed by decapitation 4 hr after the last administration and blood was collected, clotted and centrifuged to obtain serum. The liver was excised quickly and weighed. Total lipids were extracted from the serum and liver, and the levels of Ch, TG and PL were determined colorimetrically.

[1] = 240 h, Table 2, read-out: Liver lipid levels PL, relative to Control (100)
[2] = 240 h, Table 3, read-out: Liver lipid levels PL, relative to Control (100)
[3] = Table 2, read-out: Liver lipid levels Ch, relative to Control (100)
[4] = Table 2, read-out: Liver lipid levels TG, relative to Control (100)
[5] = Table 2, read-out: Serum lipid levels Ch, relative to Control (100)
[6] = Table 2, read-out: Serum lipid levels PL, relative to Control (100)
[7] = Table 2, read-out: Serum lipid levels TG, relative to Control (100)
[8] = Table 3, read-out: Liver lipid levels Ch, relative to Control (100)
[9] = Table 3, read-out: Liver lipid levels TG, relative to Control (100)
[10] = Table 3, read-out: Serum lipid levels Ch, relative to Control (100)
[11] = Table 3, read-out: Serum lipid levels PL, relative to Control (100)
[12] = Table 3, read-out: Serum lipid levels TG, relative to Control (100)

| Relative liver weight (Table 2) [g/100 g b.w.] | Relative liver weight, relative to Control (100) (Table 2) | SMILES | response vs control in vivo at 100 mg/kg [1] [%] | response vs control in vivo at 100 mg/kg [2] [%] | response vs control in vivo at 100 mg/kg [3] [%] | response vs control in vivo at 100 mg/kg [4] [%] | response vs control in vivo at 100 mg/kg [5] [%] | response vs control in vivo at 100 mg/kg [6] [%] | response vs control in vivo at 100 mg/kg [7] [%] | response vs control in vivo at 100 mg/kg [8] [%] | response vs control in vivo at 100 mg/kg [9] [%] | response vs control in vivo at 100 mg/kg [10] [%] | response vs control in vivo at 100 mg/kg [11] [%] | response vs control in vivo at 100 mg/kg [12] [%] | Liver lipid levels Ch (Table 2) [mg/g liver] | Liver lipid levels PL (Table 2) [mg/g liver] | Liver lipid levels TG (Table 2) [mg/g liver] | Serum lipid levels Ch (Table 2) [mg/dL] | Serum lipid levels PL (Table 2) [mg/dL] | Serum lipid levels TG (Table 2) [mg/dL] | also measured |
| --- | --- | --- | --- | --- | --- | --- | --- | --- | --- | --- | --- | --- | --- | --- | --- | --- | --- | --- | --- | --- | --- |
| 4.10 ± 0.06 | 106 | O=C(OCCc1ccc(OCc2ccc(Cl)cc2)cc1)c1cccnc1 [n1=1, n2=2, 4-(4-Chlorobenzyloxy)phenethyl nicotinate] | 105 | 104 | 78.3 | 82.9 | 78.1 | 76.8 | 44.2 | 106 | 79 | 70.9 | 64.7 | 27.3 | 2.38 ± 0.10 | 39.9 ± 0.8 | 5.24 ± 0.36 | 67.7 ± 3.3 | 114 ± 4.7 | 54.7 ± 6.5 | Liver lipid levels Ch (Table 3): 2.46 ± 0.14 mg/g liver; Liver lipid levels PL (Table 3): 37.5 ± 0.4 mg/g liver; Relative liver weight (Table 3): 3.80 ± 0.07 g/100 g b.w.; Serum lipid levels Ch (Table 3): 69.2 ± 3.9 mg/dL; Serum lipid levels PL (Table 3): 101 ± 4.5 mg/dL; Serum lipid levels TG (Table 3): 34.2 ± 2.9 mg/dL; Relative liver weight, relative to Control (100) (Table 3): 100 |
|  |  | O=C(OCCc1ccc(OCCCCc2ccc(Cl)cc2)cc1)c1cccnc1 [n1=4, n2=2, 4-[4-(4-Chlorophenyl)butoxy]phenethyl nicotinate] |  | 109 |  |  |  |  |  | 98.3 | 79.7 | 74 | 67.1 | 24.9 |  |  |  |  |  |  | Liver lipid levels Ch (Table 3): 2.28 ± 0.09 mg/g liver; Liver lipid levels PL (Table 3): 39.6 ± 0.9 mg/g liver; Liver lipid levels TG (Table 3): 5.72 ± 0.40 mg/g liver; Relative liver weight (Table 3): 4.03 ± 0.07 g/100 g b.w.; Serum lipid levels Ch (Table 3): 72.2 ± 1.3 mg/dL; Serum lipid levels PL (Table 3): 104 ± 3.7 mg/dL; Serum lipid levels TG (Table 3): 31.3 ± 3.6 mg/dL; Relative liver weight, relative to Control (100) (Table 3): 106 |
| 4.44 ± 0.11 | 115 | O=C(OCCCCc1ccc(OCc2ccc(Cl)cc2)cc1)c1cccnc1 [n1=1, n2=4, 4-[4-Chlorobenzyloxy)phenyl]butyl nicotinate] | 101 | 101 | 70.1 | 106 | 75.4 | 77 | 39.5 | 108 | 103 | 76 | 68.2 | 29.9 | 2.13 ± 0.04 | 38.4 ± 0.7 | 6.73 ± 0.51 | 65.4 ± 1.4 | 114 ± 2.5 | 48.9 ± 5.1 | Liver lipid levels Ch (Table 3): 2.51 ± 0.11 mg/g liver; Liver lipid levels PL (Table 3): 36.7 ± 0.9 mg/g liver; Liver lipid levels TG (Table 3): 7.42 ± 0.88 mg/g liver; Relative liver weight (Table 3): 3.91 ± 0.10 g/100 g b.w.; Serum lipid levels Ch (Table 3): 74.2 ± 2.5 mg/dL; Serum lipid levels PL (Table 3): 106 ± 3.6 mg/dL; Serum lipid levels TG (Table 3): 37.6 ± 3 mg/dL; Relative liver weight, relative to Control (100) (Table 3): 103 |

| SMILES | Relative liver weight (Table 2) [g/100 g b.w.] | Relative liver weight, relative to Control (100) (Table 2) | response vs control in vivo at 100 mg/kg [1] [%] | response vs control in vivo at 100 mg/kg [2] [%] | response vs control in vivo at 100 mg/kg [3] [%] | response vs control in vivo at 100 mg/kg [4] [%] | response vs control in vivo at 100 mg/kg [5] [%] | response vs control in vivo at 100 mg/kg [6] [%] | response vs control in vivo at 100 mg/kg [7] [%] | response vs control in vivo at 100 mg/kg [8] [%] | response vs control in vivo at 100 mg/kg [9] [%] | response vs control in vivo at 100 mg/kg [10] [%] | response vs control in vivo at 100 mg/kg [11] [%] | response vs control in vivo at 100 mg/kg [12] [%] | Liver lipid levels Ch (Table 2) [mg/g liver] | Liver lipid levels PL (Table 2) [mg/g liver] | Liver lipid levels TG (Table 2) [mg/g liver] | Serum lipid levels Ch (Table 2) [mg/dL] | Serum lipid levels PL (Table 2) [mg/dL] | Serum lipid levels TG (Table 2) [mg/dL] | also measured |
| --- | --- | --- | --- | --- | --- | --- | --- | --- | --- | --- | --- | --- | --- | --- | --- | --- | --- | --- | --- | --- | --- |
| O=C(OCCCCc1ccc(OCCCCc2ccc(Cl)cc2)cc1)c1cccnc1 [n1=4, n2=4, 4-{4-[4-(4-Chlorophenyl)butoxy]phenyl}butyl nicotinate] | 3.90 ± 0.06 | 101 | 107 |  | 79.3 | 112 | 70.8 | 69.2 | 31.5 |  |  |  |  |  | 2.41 ± 0.08 | 40.9 ± 0.4 | 7.11 ± 0.53 | 61.4 ± 3.2 | 103 ± 4.4 | 39 ± 3.2 |  |

— patent US4556715A, “Nicotinic acid derivatives” (Kyorin Pharmaceutical Co., Ltd., priority 1980, dated 1985)
